{"source": "ChEMBL document CHEMBL1201862", "about": "“PubChem BioAssay data set” (2004)", "experiment_in_all_cases": "DTP human tumour cell line panel, 48 h", "key": {"COLO 205": {"test_system": "COLO 205"}, "UO-31": {"test_system": "UO-31"}, "OVCAR-4": {"test_system": "OVCAR-4"}, "NCI-H522": {"test_system": "NCI-H522"}, "PC-3": {"test_system": "PC-3"}, "NCI/ADR-RES": {"test_system": "NCI/ADR-RES"}, "MDA-MB-435": {"test_system": "MDA-MB-435"}, "IGROV-1": {"test_system": "IGROV-1"}, "CCRF-CEM": {"test_system": "CCRF-CEM"}, "Malme-3M": {"test_system": "Malme-3M"}, "OVCAR-3": {"test_system": "OVCAR-3"}, "T47D": {"test_system": "T47D"}, "SF-539": {"test_system": "SF-539"}, "ACHN": {"test_system": "ACHN"}, "U-251": {"test_system": "U-251"}, "RPMI-8226": {"test_system": "RPMI-8226"}, "Hs-578T": {"test_system": "Hs-578T"}, "SK-MEL-2": {"test_system": "SK-MEL-2"}, "NCI-H460": {"test_system": "NCI-H460"}, "LOX IMVI": {"test_system": "LOX IMVI"}, "MDA-N": {"test_system": "MDA-N"}, "SR": {"test_system": "SR"}, "NCI-H23": {"test_system": "NCI-H23"}, "SNB-19": {"test_system": "SNB-19"}, "HOP-92": {"test_system": "HOP-92"}, "HCT-116": {"test_system": "HCT-116"}, "786-0": {"test_system": "786-0"}, "CAKI-1": {"test_system": "CAKI-1"}, "MCF7": {"test_system": "MCF7"}, "K562": {"test_system": "K562"}, "UACC-257": {"test_system": "UACC-257"}, "SK-OV-3": {"test_system": "SK-OV-3"}, "SW-620": {"test_system": "SW-620"}, "SF-295": {"test_system": "SF-295"}, "HL-60": {"test_system": "HL-60"}, "A498": {"test_system": "A498"}, "EKVX": {"test_system": "EKVX"}, "OVCAR-8": {"test_system": "OVCAR-8"}, "OVCAR-5": {"test_system": "OVCAR-5"}, "HT-29": {"test_system": "HT-29"}, "SK-MEL-5": {"test_system": "SK-MEL-5"}, "UACC-62": {"test_system": "UACC-62"}, "RXF 393": {"test_system": "RXF 393"}, "KM12": {"test_system": "KM12"}, "TK-10": {"test_system": "TK-10"}, "MDA-MB-231": {"test_system": "MDA-MB-231"}, "NCI-H226": {"test_system": "NCI-H226"}, "HOP-62": {"test_system": "HOP-62"}, "HCT-15": {"test_system": "HCT-15"}, "M14": {"test_system": "M14"}, "A549": {"test_system": "A549"}, "MOLT-4": {"test_system": "MOLT-4"}, "SF-268": {"test_system": "SF-268"}, "BT-549": {"test_system": "BT-549"}}, "note": "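Exposure lasted 48 hours, with cells grown in 96-well plates and compounds tested at five concentrations. At the GI50, growth is halved.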 The source made the active and inactive calls. Rule as the data show it: active = GI50 up to about 1.1 µM and inactive = higher."}
{"smiles": "CC1CC(=O)Nc2nc3ccccc3n21", "note": "(centres undefined)", "values": [{"measurement": "GI50", "setting": "COLO 205", "result": "> 100 µM (inactive)"}, {"measurement": "GI50", "setting": "UO-31", "result": "> 100 µM (inactive)"}, {"measurement": "GI50", "setting": "OVCAR-4", "result": "> 100 µM (inactive)"}, {"measurement": "GI50", "setting": "NCI-H522", "result": "> 100 µM (inactive)"}, {"measurement": "GI50", "setting": "PC-3", "result": "> 100 µM (inactive)"}, {"measurement": "GI50", "setting": "NCI/ADR-RES", "result": "> 100 µM (inactive)"}, {"measurement": "GI50", "setting": "MDA-MB-435", "result": "> 100 µM (inactive)"}, {"measurement": "GI50", "setting": "IGROV-1", "result": "> 100 µM (inactive)"}, {"measurement": "GI50", "setting": "CCRF-CEM", "result": "> 100 µM (inactive)"}, {"measurement": "GI50", "setting": "Malme-3M", "result": "> 100 µM (inactive)"}, {"measurement": "GI50", "setting": "OVCAR-3", "result": "> 100 µM (inactive)"}, {"measurement": "GI50", "setting": "T47D", "result": "> 100 µM (inactive)"}, {"measurement": "GI50", "setting": "SF-539", "result": "> 100 µM (inactive)"}, {"measurement": "GI50", "setting": "ACHN", "result": "> 100 µM (inactive)"}, {"measurement": "GI50", "setting": "U-251", "result": "> 100 µM (inactive)"}, {"measurement": "GI50", "setting": "RPMI-8226", "result": "> 100 µM (inactive)"}, {"measurement": "GI50", "setting": "Hs-578T", "result": "> 100 µM (inactive)"}, {"measurement": "GI50", "setting": "SK-MEL-2", "result": "> 100 µM (inactive)"}, {"measurement": "GI50", "setting": "NCI-H460", "result": "> 100 µM (inactive)"}, {"measurement": "GI50", "setting": "LOX IMVI", "result": "> 100 µM (inactive)"}, {"measurement": "GI50", "setting": "MDA-N", "result": "> 100 µM (inactive)"}, {"measurement": "GI50", "setting": "SR", "result": "> 100 µM (inactive)"}, {"measurement": "GI50", "setting": "NCI-H23", "result": "> 100 µM (inactive)"}, {"measurement": "GI50", "setting": "SNB-19", "result": "> 100 µM (inactive)"}, {"measurement": "GI50", "setting": "HOP-92", "result": "> 100 µM (inactive)"}, {"measurement": "GI50", "setting": "HCT-116", "result": "> 100 µM (inactive)"}, {"measurement": "GI50", "setting": "786-0", "result": "> 100 µM (inactive)"}, {"measurement": "GI50", "setting": "CAKI-1", "result": "> 100 µM (inactive)"}, {"measurement": "GI50", "setting": "MCF7", "result": "> 100 µM (inactive)"}, {"measurement": "GI50", "setting": "K562", "result": "> 100 µM (inactive)"}, {"measurement": "GI50", "setting": "UACC-257", "result": "> 100 µM (inactive)"}, {"measurement": "GI50", "setting": "SK-OV-3", "result": "> 100 µM (inactive)"}, {"measurement": "GI50", "setting": "SW-620", "result": "> 100 µM (inactive)"}, {"measurement": "GI50", "setting": "SF-295", "result": "> 100 µM (inactive)"}, {"measurement": "GI50", "setting": "HL-60", "result": "> 100 µM (inactive)"}, {"measurement": "GI50", "setting": "A498", "result": "> 100 µM (inactive)"}, {"measurement": "GI50", "setting": "EKVX", "result": "0.953 µM (active)"}, {"measurement": "GI50", "setting": "OVCAR-8", "result": "> 100 µM (inactive)"}, {"measurement": "GI50", "setting": "OVCAR-5", "result": "> 100 µM (inactive)"}, {"measurement": "GI50", "setting": "HT-29", "result": "> 100 µM (inactive)"}, {"measurement": "GI50", "setting": "SK-MEL-5", "result": "> 100 µM (inactive)"}, {"measurement": "GI50", "setting": "UACC-62", "result": "> 100 µM (inactive)"}, {"measurement": "GI50", "setting": "RXF 393", "result": "> 100 µM (inactive)"}, {"measurement": "GI50", "setting": "KM12", "result": "> 100 µM (inactive)"}, {"measurement": "GI50", "setting": "TK-10", "result": "> 100 µM (inactive)"}, {"measurement": "GI50", "setting": "MDA-MB-231", "result": "> 100 µM (inactive)"}, {"measurement": "GI50", "setting": "NCI-H226", "result": "> 100 µM (inactive)"}, {"measurement": "GI50", "setting": "HOP-62", "result": "> 100 µM (inactive)"}, {"measurement": "GI50", "setting": "HCT-15", "result": "> 100", "unit": "µM"}, {"measurement": "GI50", "setting": "M14", "result": "> 100 µM (inactive)"}, {"measurement": "GI50", "setting": "A549", "result": "> 100 µM (inactive)"}, {"measurement": "GI50", "setting": "MOLT-4", "result": "> 100 µM (inactive)"}, {"measurement": "GI50", "setting": "SF-268", "result": "> 100 µM (inactive)"}, {"measurement": "GI50", "setting": "BT-549", "result": "> 100 µM (inactive)"}]}
